# Results taken from US5366982A (priority 1990, dated 1994).
# Assays:
# [1] = test system: guinea-pig pulmonary parenchyma; assay: L. Parenchyma: guinea-pig pulmonary parenchyma contraction antagonism induced by LTB4 (Sirois); type: cell-based; settings: Cavia porcellus; Table XIX; guinea-pig pulmonary parenchyma contraction induced by LTB4; read-out: IC50 L. Parenchyma
# Description: Further, compounds of this invention are shown to be leukotriene B4 antagonists in the technique of guinea-pig pulmonary parenchyma contraction antagonism induced by LTB4 described by P. Sirois et al., Pharmacology, 31, 225-236 (1985). In this technique, products are active at concentrations of between about 1 to about 10,000 nM.
# [2] = molecular target: leukotriene B4 receptors (Cavia porcellus, UniProt H0VYV8); assay: biochemical; type: binding, guinea-pig; settings: for IC50: Table XIX, guinea-pig spleen membranes, tritium-labelled LTB4, read-out: IC50 Binding (Cheng); for inhibition at 10 µM: read-out: Binding (Cheng) % Inhibition at 10 μM
# Sequence of leukotriene B4 receptors (H0VYV8 1-348): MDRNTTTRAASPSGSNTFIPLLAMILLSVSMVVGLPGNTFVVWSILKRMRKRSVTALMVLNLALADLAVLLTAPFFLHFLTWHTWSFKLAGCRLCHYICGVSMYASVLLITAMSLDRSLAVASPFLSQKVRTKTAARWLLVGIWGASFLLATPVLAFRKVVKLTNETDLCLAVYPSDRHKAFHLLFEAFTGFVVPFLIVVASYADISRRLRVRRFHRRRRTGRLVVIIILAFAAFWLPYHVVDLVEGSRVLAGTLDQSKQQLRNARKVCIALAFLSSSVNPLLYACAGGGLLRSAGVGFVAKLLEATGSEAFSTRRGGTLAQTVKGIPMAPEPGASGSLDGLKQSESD
SMILES,IC50 [2] [nM],further results
"CC(C)(CCCCOc1cc(-c2ccccc2)cc(-c2ccccc2)n1)C(=O)O [2,2-dimethyl-6-[(4,6-diphenyl-2-pyridyl)oxy]hexanoic acid]",–,IC50 [1]: 10 nM
"CC(C)(CCCCOc1cc(-c2ccc3c(c2)OCO3)cc(-c2ccccc2)n1)C(=O)O [2,2-dimethyl-6-{[4-(3,4-methylenedioxyphenyl)-6-phenyl-2-pyridyl]oxy}hexanoic acid]",–,IC50 [1]: 140 nM
"CC(C)(CCCCCOc1cc(-c2ccccc2)cc(-c2ccccc2)n1)C(=O)O [2,2-dimethyl-7-[(4,6-diphenyl-2-pyridyl)oxy]heptanoic acid]",–,IC50 [1]: 30 nM
CC(CCCCOc1cc(-c2cccc(Cl)c2)cc(-c2ccccc2)n1)C(=O)O (stereo not shown) [2-methyl-6-{[4-(3-chlorophenyl)-6-phenyl-2-pyridyl]oxy}hexanoic acid],–,IC50 [1]: 1000 nM
COc1cccc(-c2cc(OCCCCC(C)C(=O)O)nc(-c3ccccc3)c2)c1 (stereo not shown) [2-methyl-6-{[4-(3-methoxyphenyl)-6-phenyl-2-pyridyl]oxy}hexanoic acid],–,IC50 [1]: 20 nM
CC(CCCCOc1cc(-c2ccc(N)cc2)cc(-c2ccccc2)n1)C(=O)O (stereo not shown) [2-methyl-6-{[4-(4-aminophenyl)-6-phenyl-2-pyridyl]oxy}hexanoic acid],–,IC50 [1]: 20 nM
CC(CCCCOc1cc(-c2ccc(Cl)cc2)cc(-c2ccccc2)n1)C(=O)O (stereo not shown) [2-methyl-6-{[4-(4-chlorophenyl)-6-phenyl-2-pyridyl]oxy}hexanoic acid],–,IC50 [1]: 70 nM
COc1ccc(-c2cc(OCCCCC(C)C(=O)O)nc(-c3ccccc3)c2)cc1 (stereo not shown) [2-methyl-6-{[4-(4-methoxyphenyl)-6-phenyl-2-pyridyl]oxy}hexanoic acid],–,IC50 [1]: 20 nM
"COc1ccc(-c2cnc(OCCCCCC(=O)O)nc2-c2ccc(OC)cc2)cc1 [6-[4,5-bis-(4-methoxyphenyl)-2-pyrimidyloxy]hexanoic acid]",8000,–
"O=C(O)CCCCCOc1nc(-c2ccccc2)cc(-c2ccccc2)n1 [6-[(4,6-diphenyl-2-pyrimidyl)oxy]hexanoic acid]",150,–
O=C(O)CCCCCOc1cc(-c2ccccc2)ccn1 [6-[(4-phenyl-2-pyridyl)oxy]hexanoic acid],900,–
O=C(O)CCCCCOc1cc(-c2ccccc2)c2ccccc2n1 [6-[(4-phenyl-2-quinolyl)oxy]hexanoic acid],700,–
"CC(C)(CCCCOc1ccc(-c2ccccc2)c(-c2ccccc2)n1)C(=O)O [6-[(5,6-diphenyl-2-pyridyl)oxy]-2,2-dimethylhexanoic acid]",10000,–
"O=C(O)CCCCCOc1ccc(-c2ccccc2)c(-c2ccccc2)n1 [6-[(5,6-diphenyl-2-pyridyl)oxy]hexanoic acid]",–,inhibition at 10 µM [2]: 15%
COc1ccc2nc(OCCCCCC(=O)O)cc(-c3ccccc3)c2c1 [6-[(6-methoxy-4-phenyl-2-quinolyl)oxy]hexanoic acid],–,inhibition at 10 µM [2]: 30%
"Cc1cc(-c2ccccc2)cc(OCCCCC(C)(C)C(=O)O)n1 [6-[(6-methyl-4-phenyl-2-pyridyl)oxy]-2,2-dimethylhexanoic acid]",10,–
Cc1cc(-c2ccccc2)cc(OCCCCCC(=O)O)n1 [6-[(6-methyl-4-phenyl-2-pyridyl)oxy]hexanoic acid],200,–
"Cc1ccc2nc(OCCCCC(C)(C)C(=O)O)cc(-c3ccccc3)c2c1 [6-[(6-methyl-4-phenyl-2-quinolyl)oxy]-2,2-dimethylhexanoic acid]",5000,–
"CC(C)(CCCCOc1cccc(-c2ccccc2)n1)C(=O)O [6-[(6-phenyl-2-pyridyl)oxy]-2,2-dimethylhexanoic acid]",2000,–
"O=C(O)CCCCCOc1cc(-c2ccc(Cl)cc2)cc(-c2ccc(Cl)cc2)n1 [6-{[4,6-di(4-chlorophenyl)-2-pyridyl]oxy}hexanoic acid]",1200,–

SMILES,IC50 [2] [nM],further results
"COc1ccc(-c2cc(OCCCCCC(=O)O)nc(-c3ccc(OC)cc3)c2)cc1 [6-{[4,6-di(4-methoxyphenyl)-2-pyridyl]oxy}hexanoic acid]",3000,–
O=C(O)CCCCCOc1cc(-c2ccccc2Cl)cc(-c2ccccc2)n1 [6-{[4-(2-chlorophenyl)-6-phenyl-2-pyridyl]oxy}hexanoic acid],200,–
"COc1ccccc1-c1cc(OCCCCC(C)(C)C(=O)O)nc2ccccc12 [6-{[4-(2-methoxyphenyl)-2-quinolyl]oxy}-2,2-dimethylhexanoic acid]",–,inhibition at 10 µM [2]: 36%
"O=C(O)CCCCCOc1cc(-c2cc(Cl)cc(Cl)c2)cc(-c2ccccc2)n1 [6-{[4-(3,5-dichlorophenyl)-6-phenyl-2-pyridyl]oxy}hexanoic acid]",500,–
Nc1cccc(-c2cc(OCCCCCC(=O)O)nc(-c3ccccc3)c2)c1 [6-{[4-(3-aminophenyl)-6-phenyl-2-pyridyl]oxy}hexanoic acid],12,–
O=C(O)CCCCCOc1cc(-c2cccc(Cl)c2)cc(-c2ccccc2)n1 [6-{[4-(3-chlorophenyl)-6-phenyl-2-pyridyl]oxy}hexanoic acid],4,–
Cc1cccc(-c2cc(OCCCCCC(=O)O)nc(-c3ccccc3)c2)c1 [6-{[4-(3-methylphenyl)-6-phenyl-2-pyridyl]oxy}hexanoic acid],15,–
O=C(O)CCCCCOc1cc(-c2ccc(NC(=O)c3ccccc3)cc2)cc(-c2ccccc2)n1 [6-{[4-(4-benzamidophenyl)-6-phenyl-2-pyridyl]oxy}hexanoic acid],4000,–
"CC(C)(CCCCOc1cc(-c2ccc(Cl)cc2)ccn1)C(=O)O [6-{[4-(4-chlorophenyl)-2-pyridyl]oxy}-2,2-dimethylhexanoic acid]",20,–
O=C(O)CCCCCOc1cc(-c2ccc(Cl)cc2)c2ccccc2n1 [6-{[4-(4-chlorophenyl)-2-quinolyl]oxy}hexanoic acid],30,–
COc1ccc(-c2cc(-c3ccc(Cl)cc3)cc(OCCCCCC(=O)O)n2)cc1 [6-{[4-(4-chlorophenyl)-6-(4-methoxyphenyl)-2-pyridyl]oxy}hexanoic acid],1700,–
"CNc1ccc(-c2cc(OCCCCC(C)(C)C(=O)O)nc(-c3ccccc3)c2)cc1 [6-{[4-(4-methylaminophenyl)-6-phenyl-2-pyridyl]oxy}-2,2-dimethylhexanoic acid]",8,–
"COc1ccc(-c2ccc(OCCCCCC(=O)O)nc2-c2ccc(OC)cc2)cc1 [6-{[5,6-bis-(4-methoxyphenyl)-2-pyridyl]oxy}hexanoic acid]",–,inhibition at 10 µM [2]: 37%
"COc1ccc(-c2cc(OCCCCCC(=O)O)nc(-c3ccccc3)c2)cc1OC [6-{[6-phenyl-4-(3,4-dimethoxyphenyl)-2-pyridyl]oxy]hexanoic acid]",–,inhibition at 10 µM [2]: 21%
"COc1cc(OC)cc(-c2cc(OCCCCCC(=O)O)nc(-c3ccccc3)c2)c1 [6-{[6-phenyl-4-(3,5-dimethoxyphenyl)-2-pyridyl]oxy}hexanoic acid]",–,inhibition at 10 µM [2]: 50%
O=C(O)CCCCCOc1cc(-c2ccc(C(=O)O)cc2)cc(-c2ccccc2)n1 [6-{[6-phenyl-4-(4-carboxyphenyl)-2-pyridyl]oxy}hexanoic acid],–,inhibition at 10 µM [2]: 32%
"O=C(O)CCCCCCOc1ncc(-c2ccccc2)c(-c2ccccc2)n1 [7-(4,5-diphenyl-2-pyrimidyloxy)heptanoic acid]",–,inhibition at 10 µM [2]: 22%
O=C(O)CCCCC=Cc1cc(-c2ccccc2)c2ccccc2n1 [7-(4-phenyl-2-quinolyl)-6-hepten-1-oic acid],–,inhibition at 10 µM [2]: 27%
O=C(O)CCCCCCCSc1cc(-c2ccccc2)c2ccccc2n1 [sodium 8-[(4-phenyl-2-quinolyl)thio]octanoate],–,inhibition at 10 µM [2]: 31%

# The next lines start with results.
IC50 [2] [nM],SMILES,further results
50,O=C(O)CCCCCOc1cc(-c2ccc([N+](=O)[O-])cc2)cc(-c2ccccc2)n1 [6-{[4-(4-nitrophenyl)-6-phenyl-2-pyridyl]oxy}hexanoic acid],–
150,O=C(O)CCCCCOc1cc(-c2ccc(NC(=O)C(F)(F)F)cc2)cc(-c2ccccc2)n1 [6-{[4-(4-trifluoroacetamidophenyl)-6-phenyl-2-pyridyl]oxy}hexanoic acid],–
2,"CC(CCCCOc1cc(-c2ccc3c(c2)OCO3)cc(-c2ccccc2Cl)n1)C(=O)O (stereo not shown) [6-{[6-(2-chlorophenyl)-4-(3,4-methylenedioxyphenyl)-2-pyridyl]oxy}-2-methylhexanoic acid]",–
1000,O=C(O)CCCCCOc1cc(-c2ccccc2)cc(-c2ccc(Cl)cc2)n1 [6-{[6-(4-chlorophenyl)-4-phenyl-2-pyridyl]oxy}hexanoic acid],–
1000,COc1ccc(-c2cc(-c3ccccc3)cc(OCCCCCC(=O)O)n2)cc1 [6-{[6-(4-methoxyphenyl)-4-phenyl-2-pyridyl]oxy}hexanoic acid],–
300,Cc1ccc(-c2cc(-c3ccccc3)cc(OCCCCCC(=O)O)n2)cc1 [6-{[6-(4-methylphenyl)-4-phenyl-2-pyridyl]oxy}hexanoic acid],–
10000,"O=C(O)CCCCC=Cc1cccc(Cc2ccccc2)c1 [7-(3-benzyl-phenyl)6-heptenoic acid, 7-(3-benzyl-phenyl)-6-heptenoic acid]",–
7000,"O=C(O)CCCCCCc1cccc(Cc2ccccc2)c1 [7-(3-benzylphenyl)heptanoic acid, 7-(3-benzyl-phenyl)heptanoic acid]",–
1800,O=C(O)CCCCCCOc1cc(-c2ccccc2)c2ccccc2n1 [7-[(4-phenyl-2-quinolyl)oxy]heptanoic acid],–
8500,"O=C(O)CCCCCCCOc1ncc(-c2ccccc2)c(-c2ccccc2)n1 [8-(4,5-diphenyl-2-pyrimidyloxy)octanoic acid]",–
3000,"COc1ccc(-c2ccc(OCCCCCCCC(=O)O)nc2-c2ccc(OC)cc2)cc1 [8-{[5,6-bis-(4-methoxyphenyl)-2-pyridyl]oxy}octanoic acid]",–
16,"O=C(O)CNC(=O)CCCOc1cc(-c2ccccc2)cc(-c2ccccc2)n1 [N-[4-(4,6-diphenyl-2-pyridyloxy)butanoyl]glycine]",–
5000,CCOC(=O)CCCCCOc1cc(-c2ccccc2)cc(-c2ccc(Cl)cc2)n1 [ethyl 6-{[6-(4-chlorophenyl)-4-phenyl-2-pyridyl]oxy}hexanoate],–
